Experimental data from patent publication US20190194209A1, “PYRAZOLE CARBOXAMIDE COMPOUNDS AND METHODS OF USE” (Genentech, Inc., priority 2014, published 2019).
Like-named read-outs stand apart in the source and are kept apart here.

Experiments:
[1] = target: T1, full length human wildtype Btk (Homo sapiens, UniProt Q06187); experiment: Biochemical Btk Kinase Assay (Example 901); conditions: read-out: BTK LC3K (Ki)
T1 construct: V5 (C); 6xHis (C); made in house; host or cells: Sf9 cells (baculovirus, pFastBac)
Experimental: Formula I compounds were tested by a standard biochemical Btk, Kinase Assay (Example 901). A generalized procedure for a standard biochemical Btk, Kinase Assay that can be used to test Formula I compounds is as follows. A master mix minus Btk enzyme is prepared containing 1× Cell Signaling kinase buffer (25 mM Tris-HCl, pH 7.5, 5 mM beta-glycerophosphate, 2 mM dithiothreitol, 0.1 mM Na3VO4, 10 mM MgCl2), 0.5 μM Promega PTK Biotinylated peptide substrate 2, and 0.01% BSA. A master mix plus Btk enzyme is prepared containing 1× Cell Signaling kinase buffer, 0.5 μM (micromolar) PTK Biotinylated peptide substrate 2, 0.01% BSA, and 100 ng/well (0.06 mU/well) Btk enzyme. Btk enzyme is prepared as follows: full length human wildtype Btk (accession number NM-000061) with a C-terminal V5 and 6×His tag was subcloned into pFastBac® vector (Invitrogen/Life Technologies) for making baculovirus carrying this epitope-tagged Btk. Generation of baculovirus is done based on Invitrogen's instructions detailed in its published protocol “Bac-to-Bac Baculovirus Expression Systems” (Invitrogen/Life Technologies, Cat. Nos. 10359-016 and 10608-016). Passage 3 virus is used to infect Sf9 cells to overexpress the recombinant Btk protein. The Btk protein is then purified to homogeneity using Ni-NTA column. The purity of the final protein preparation is greater than 95% based on the sensitive Sypro-Ruby staining. A solution of 200 μM ATP is prepared in water and adjusted to pH 7.4 with 1N NaOH. A quantity of 1.25 μL (microliter) of compounds in 5% DMSO is transferred to a 96-well 2 area Costar polystyrene plate. Compounds are tested singly and with an 11-point dose-responsive curve (starting concentration is 10 μM; 1:2 dilution). A quantity of 18.75 μL of master mix minus enzyme (as a negative control) and master mix plus enzyme is transferred to appropriate wells in 96-well 2 area costar polystyrene plate. 5 μL of 200 μM ATP is added to that mixture in the 96-well 2 area Costar polystyrene plate for final ATP concentration of 40 μM. The reaction is allowed to incubate for 1 hour at room temperature. The reaction is stopped with Perkin Elmer 1× detection buffer containing 30 mM EDTA, 20 nM SA-APC, and 1 nM PT66 Ab. The plate is read using time-resolved fluorescence with a Perkin Elmer Envision using excitation filter 330 nm, emission filter 665 nm, and 2nd emission filter 615 nm. IC50 values are subsequently calculated. Alternatively, the Lanthascreen assay can be used to evaluate Btk activity through quantification of its phosphorylated peptide product. The FRET (Fluorescence Resonance Energy Transfer) that occurs between the fluorescein on the peptide product and the terbium on the detection antibody decreases with the addition of inhibitors of Btk that reduce the phosphorylation of the peptide. In a final reaction volume of 25 μL (microliters), Btk (h) (0.1 ng/25 μl reaction) is incubated with 50 mM Hepes pH 7.5, 10 mM MgCl2, 2 mM MnCl2, 2 mM DTT, 0.2 mM NaVO4, 0.01% BSA, and 0.4 uM fluorescein poly-GAT. The reaction is initiated by the addition of ATP to 25 μM (micromolar) the Km of ATP. After incubation for 60 minutes at room temperature, the reaction is stopped by the addition of a final concentration of 2 nM Tb-PY20 detection antibody in 60 mM EDTA for 30 minutes at room temperature. Detection is determined on a Perkin Elmer Envision with 340 nm excitation and emission at 495 nm and 520 nm. Exemplary Btk inhibition […] values are in Table 1.

[2] = system: CD69 production by B lymphocytes in human whole blood activated with goat F(ab')2 anti-human IgM; experiment: CD69 Whole Blood Assay (Example 907); format: cell-based; conditions: Lymphocyte, read-out: CD69 Hu Blood FACS (IC70)
From the text: A CD69 Whole Blood Assay can be conducted on Formula I compounds to determine the ability of compounds to inhibit the production of CD69 by B lymphocytes in human whole blood activated by crosslinking surface IgM with goat F(ab′)2 anti-human IgM (Example 907). CD69 is a type II C-type lectin involved in lymphocyte migration and cytokine secretion. CD69 expression represents one of the earliest available indicators of leukocyte activation and its rapid induction occurs through transcriptional activation (Vazquez et al (2009) Jour. of Immunology Published Oct. 19, 2009, doi: 10.4049/jimmunol.0900839). Concentration-dependent inhibition of antigen receptor stimulation by selective Btk inhibitors induces cell surface expression of the lymphocyte activation marker CD69 (Honigberg et al (2010) Proc. Natl. Acad. Sci. 107(29):13075-13080). Thus, CD69 inhibition by selective Btk inhibitors may be correlated with therapeutic efficacy of certain B-cell disorders.
Human blood is obtained from healthy volunteers, with the following restrictions: 1 week drug-free, non-smokers. Blood (approximately 20 mls to test 8 compounds) is collected by venipuncture into Vacutainer® (Becton, Dickinson and Co.) tubes with sodium heparin.
Solutions of Formula I compounds at 10 mM in DMSO are diluted 1:10 in 100% DMSO, then are diluted by three-fold serial dilutions in 100% DMSO for a ten point dose-response curve. The compounds are further diluted 1:10 in PBS and then an aliquot of 5.5 μl of each compound is added in duplicate to a 2 ml 96-well plate; 5.5 μl of 10% DMSO in PBS is added as control and no-stimulus wells. Human whole blood—HWB (100 μl) is added to each well. After mixing the plates are incubated at 37° C., 5% CO2, 100% humidity for 30 minutes. Goat F(ab′)2 anti-human IgM (10 μl of a 500 μg/ml solution, 50 μg/ml final) is added to each well (except the no-stimulus wells) with mixing and the plates are incubated for an additional 20 hours. At the end of the 20 hour incubation, samples are incubated with fluorescent labeled antibodies for 30 minutes, at 37° C., 5% CO2, 100% humidity. Include induced control, unstained and single stains for compensation adjustments and initial voltage settings. Samples are then lysed with PharM Lyse™ (BD Biosciences Pharmingen) according to the manufacturer's instructions. Samples are then transferred to a 96 well plate suitable to be run on the BD Biosciences HTS 96 well system on the LSRII machine. Data acquired and Mean Fluorescence Intensity values were obtained using BD Biosciences DIVA Software. Results are initially analyzed by FACS analysis software (Flow Jo).

[3] = human whole blood, anti-IgM stimulated, 20 hour incubation, CD20 positive cells, FACS

T1 sequence (Q06187 whole entry): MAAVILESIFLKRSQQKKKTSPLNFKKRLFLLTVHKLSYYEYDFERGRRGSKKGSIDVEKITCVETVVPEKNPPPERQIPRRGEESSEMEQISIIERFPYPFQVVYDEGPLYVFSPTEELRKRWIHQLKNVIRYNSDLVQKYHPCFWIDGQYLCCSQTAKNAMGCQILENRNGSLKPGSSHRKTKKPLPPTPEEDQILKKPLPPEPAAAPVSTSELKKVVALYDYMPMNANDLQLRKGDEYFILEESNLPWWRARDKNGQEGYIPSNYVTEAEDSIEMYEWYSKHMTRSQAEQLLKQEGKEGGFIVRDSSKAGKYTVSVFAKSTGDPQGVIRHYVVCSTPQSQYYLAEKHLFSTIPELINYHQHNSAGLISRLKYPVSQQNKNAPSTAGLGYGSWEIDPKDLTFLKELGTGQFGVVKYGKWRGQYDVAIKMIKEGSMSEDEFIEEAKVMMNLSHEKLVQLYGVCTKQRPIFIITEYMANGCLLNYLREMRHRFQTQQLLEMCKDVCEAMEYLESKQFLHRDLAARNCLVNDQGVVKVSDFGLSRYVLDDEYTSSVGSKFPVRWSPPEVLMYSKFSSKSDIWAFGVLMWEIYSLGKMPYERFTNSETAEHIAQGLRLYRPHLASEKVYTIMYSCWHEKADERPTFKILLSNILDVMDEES

Row | SMILES | Ki [1] [nM] | IC70 [2, 3] [nM] | IC70 ([2]; Homo sapiens, 20 h) [nM]
1 | C[C@H]1CN(C2COC2)CCN1c1ccc(Nc2nn(-c3ccnc(-n4ncc5cc(C(C)(C)C)cc(F)c5c4=O)c3CO)cc2C(N)=O)nc1 [Example 120, 1-[2-(6-tert-butyl-8-fluoro-1-oxo-phthalazin-2-yl)-3-(hydroxymethyl)-4-pyridyl]-3-[[5-[(2S)-2-methyl-4-(oxetan-3-yl)piperazin-1-yl]-2-pyridyl]amino]pyrazole-4-carboxamide] | 0.106 | 98.6 | –
2 | C[C@H]1CN(C2COC2)CCN1c1ccc(Nc2cn(-c3ccnc(N4CCn5c(cc6c5CC(C)(C)C6)C4=O)c3CO)nc2C(N)=O)nc1 [Example 126, 1-[2-(7,7-dimethyl-4-oxo-1,2,6,8-tetrahydrocyclopenta[3,4]pyrrolo[3,5-b]pyrazin-3-yl)-3-(hydroxymethyl)-4-pyridyl]-4-[[5-[(2S)-2-methyl-4-(oxetan-3-yl)piperazin-1-yl]-2-pyridyl]amino]pyrazole-3-carboxamide] | 0.156 | 6.4 | –
3 | Cn1cc(Nc2nn(-c3ccnc(N4CCn5c(cc6c5CC(C)(C)C6)C4=O)c3CO)cc2C(N)=O)nn1 [Example 119, 1-[2-(7,7-dimethyl-4-oxo-1,2,6,8-tetrahydrocyclopenta[3,4]pyrrolo[3,5-b]-pyrazin-3-yl)-3-(hydroxymethyl)-4-pyridyl]-3-[(1-methyltriazol-4-yl)amino]pyrazole-4-carboxamide] | 0.317 | 47.2 | –
4 | CC1(C)Cc2cc3n(c2C1)CCN(c1nccc(-n2cc(C(N)=O)c(N)n2)c1CO)C3=O [Example 117, 3-amino-1-[2-(7,7-dimethyl-4-oxo-1,2,6,8-tetrahydrocyclopenta[3,4]pyrrolo[3,5-b]pyrazin-3-yl)-3-(hydroxymethyl)-4-pyridyl]pyrazole-4-carboxamide] | 2.45 | – | 494
5 | CC1(C)Cc2cc3n(c2C1)CCN(c1cccc(-n2cc(C(N)=O)c(Nc4ccncn4)n2)c1CO)C3=O [Example 104, 1-[3-(7,7-dimethyl-4-oxo-1,2,6,8-tetrahydrocyclopenta[3,4]pyrrole[3,5-b]pyrazin-3-yl)-2-(hydroxymethyl)phenyl]-3-(pyrimidin-4-ylamino)pyrazole-4-carboxamide] | 0.249 | 36.2 | –
6 | CC1(C)Cc2cc3n(c2C1)CCN(c1nccc(-n2nc(C(N)=O)c4ccccc42)c1CO)C3=O [Example 108, 1-[2-(7,7-dimethyl-4-oxo-1,2,6,8-tetrahydrocyclopenta[3,4]pyrrolo[3,5-b]pyrazin-3-yl)-3-(hydroxymethyl)-4-pyridyl]indazole-3-carboxamide] | 1.83 | 726 | –
7 | CCC(=O)Nc1nn(-c2ccnc(N3CCn4c(cc5c4CC(C)(C)C5)C3=O)c2CO)cc1C(N)=O [Example 123, 1-[2-(7,7-dimethyl-4-oxo-1,2,6,8-tetrahydrocyclopenta[3,4]pyrrolo[3,5-b]pyrazin-3-yl)-3-(hydroxymethyl)-4-pyridyl]-3-(propanoylamino)pyrazole-4-carboxamide] | 32.1 | 685 | –
8 | CC(C)(C)c1cc(F)c2c(=O)n(-c3nccc(-n4cc(C(N)=O)c(Nc5ccccn5)n4)c3CO)ncc2c1 [Example 106, 1-[2-(6-tert-butyl-8-fluoro-1-oxo-phthalazin-2-yl)-3-(hydroxymethyl)-4-pyridyl]-3-(2-pyridylamino)pyrazole-4-carboxamide] | 0.34 | – | 132

More lines, in order of falling Ki [1], values ahead:

Row | Ki [1] [nM] | SMILES | IC70 [2, 3] [nM] | IC70 ([2]; Homo sapiens, 20 h) [nM]
9 | 8.6 | Cc1nn(C)cc1-c1nn(-c2ccnc(-n3ncc4cc(C(C)(C)C)cc(F)c4c3=O)c2CO)cc1C(N)=O [Example 122, 1-[2-(6-tert-butyl-8-fluoro-1-oxo-phthalazin-2-yl)-3-(hydroxymethyl)-4-pyridyl]-3-(1,3-dimethylpyrazol-4-yl)pyrazole-4-carboxamide] | 3300 | –
10 | 1.01 | CC1(C)Cc2cc3n(c2C1)CCN(c1cccc(-n2cc(C(N)=O)c(Nc4ccccn4)n2)c1CO)C3=O [Example 102, 1-[3-(7,7-dimethyl-4-oxo-1,2,6,8-tetrahydrocyclopenta[3,4]pyrrolo[3,5-b]pyrazin-3-yl)-2-(hydroxymethyl)phenyl]-3-(2-pyridylamino)pyrazole-4-carboxamide] | 166 | –
11 | 0.615 | CC1(C)Cc2cc3n(c2C1)CCN(c1nccc(-n2cc(C(N)=O)c(NC(=O)C4CC4)n2)c1CO)C3=O [Example 107, 3-(cyclopropanecarbonylamino)-1-[2-(7,7-dimethyl-4-oxo-1,2,6,8-tetrahydrocyclopenta[3,4]pyrrolo[3,5-b]pyrazin-3-yl)-3-(hydroxymethyl)-4-pyridyl]pyrazole-4-carboxamide] | 52.1 | –
12 | 0.403 | CC(C)(C)c1cc(F)c2c(=O)n(-c3nccc(-n4cc(C(N)=O)c(Nc5ccc(Cl)cn5)n4)c3CO)ncc2c1 [Example 116, 1-[2-(6-tert-butyl-8-fluoro-1-oxo-phthalazin-2-yl)-3-(hydroxymethyl)-4-pyridyl]-3-[(5-chloro-2-pyridyl)amino]pyrazole-4-carboxamide] | 311 | –
13 | 0.103 | C[C@H]1CN(C2COC2)CCN1c1ccc(Nc2nn(-c3cc(F)cc(N4CCn5c(cc6c5CC(C)(C)C6)C4=O)c3CO)cc2C(N)=O)nc1 [Example 145, 1-[3-(7,7-dimethyl-4-oxo-1,2,6,8-tetrahydrocyclopenta[3,4]pyrrolo[3,5-b]pyrazin-3-yl)-5-fluoro-2-(hydroxymethyl)phenyl]-3-[[5-[(2S)-2-methyl-4-(oxetan-3-yl)piperazin-1-yl]-2-pyridyl]amino]pyrazole-4-carboxamide] | 30.4 | –
